Each structure is given as a SMILES string. Converted amounts (≈) assume the structure as drawn. The source made the active and inactive calls. No cut-off for these calls is given here.

The subject of experiment [1] is Staphylococcus aureus. Briefly: Antimicrobial activity against methicillin-resistant Staphylococcus aureus ATCC 43300 at 10 ug/disc after 24 hrs by disc diffusion assay. In kind it is functional. The conditions noted are these: ATCC 43300, 24 h, read-out: DIZ. For orientation: Agar diffusion results depend on both activity and mobility in agar.
Experiment [2] concerns Staphylococcus aureus. The experiment in a line: Antimicrobial activity against methicillin-resistant Staphylococcus aureus ATCC 43300 after 24 hrs by broth microdilution method. In kind it is functional. The conditions noted are these: ATCC 43300, 24 h.
The subject of experiment [3] is Staphylococcus aureus. The experiment in a line: Antimicrobial activity against heterogeneous vancomycin-intermediate Staphylococcus aureus ATCC 700698 after 24 hrs by broth microdilution method. The following applies: ATCC 700698, 24 h. Format: functional. A general note: Dilution methods test growth across graded concentrations, often in twofold steps.
The subject of experiment [4] is Staphylococcus aureus. The experiment in a line: Antimicrobial activity against vancomycin-intermediate Staphylococcus aureus ATCC 700699 after 24 hrs by broth microdilution method. The following applies: ATCC 700699, 24 h. Format: functional.
The test system of the next experiment is Acinetobacter baumannii. Briefly: Antimicrobial activity against Acinetobacter baumannii ATCC 19606. In kind it is functional.
The subject of the next experiment is Pseudomonas aeruginosa. The experiment in a line: Antimicrobial activity against Pseudomonas aeruginosa ATCC 27853. Format: functional, organism-based.
Another experiment concerns Klebsiella pneumoniae. Briefly: Antimicrobial activity against Klebsiella pneumoniae ATCC 13883. Format: functional, organism-based.
The test system of experiment [5] is Staphylococcus aureus. The experiment in a line: Antimicrobial activity against methicillin-resistant Staphylococcus aureus ATCC 43300 at 1 mg/disc after 24 hrs by disc diffusion assay. In kind it is functional.

Consider `CC(C)C(=O)Nc1cccc(C(=O)O)c1O`, for which, in the experiment on Staphylococcus aureus [1], the zone of inhibition at 10 µg/disc stood at 0 mm.
Take `CC12C[C@@]34C=CC(=O)[C@@](C)(CCC(=O)Nc5c(O)ccc(C(=O)O)c5O)C3[C@H](CC1C4)O2` (stereo partly drawn) [PLATENSIMYCIN]: the MIC against Staphylococcus aureus [2], in the experiment with Staphylococcus aureus [3] and in the experiment on Staphylococcus aureus [4] was 2 µg/mL (≈ 4.53 µM) in each case. Further, the zone of inhibition at 10 µg/disc in the experiment with Staphylococcus aureus [1] worked out at 30 mm. For the same compound, the outcome with Acinetobacter baumannii, in the experiment on Pseudomonas aeruginosa and in the experiment with Klebsiella pneumoniae was inactive.
Turning to `CC(C)(C)C(=O)Nc1cccc(C(=O)O)c1O`, the zone of inhibition at 10 µg/disc in the experiment with Staphylococcus aureus [1] stood at 0 mm.
The same measure, in the same setting: in the case of `CCC(=O)Nc1cccc(C(=O)O)c1O` it was 0 mm; in that of `CCC(=O)Nc1c(O)ccc(C(=O)O)c1O`, 0 mm.
On to `O=C(O)c1cccc(NC(=O)C23CC4CC(CC(C4)C2)C3)c1O`, for which the zone of inhibition at 10 µg/disc in the experiment with Staphylococcus aureus [1] was found to be 0 mm. For the same compound, in the experiment with Staphylococcus aureus [5], the “diameter of the inhibition zone (DIZ)” value is reported as 11 mm.
With `CC(C)(C)C(=O)Nc1c(O)ccc(C(=O)O)c1O`, the zone of inhibition at 10 µg/disc with Staphylococcus aureus [1] was 0 mm.
As for `CC12CC[C@@](C(=O)Nc3c(O)ccc(C(=O)O)c3O)(OC1=O)C2(C)C`, in the experiment with Staphylococcus aureus [1], the zone of inhibition at 10 µg/disc is 0 mm. Also, the “diameter of the inhibition zone (DIZ)” value with Staphylococcus aureus [5] was 22 mm.
With `O=C(O)c1ccc(O)c(NC(=O)C23CC4CC(CC(C4)C2)C3)c1O`, in the experiment with Staphylococcus aureus [1], the zone of inhibition at 10 µg/disc came out at 0 mm. Further, the “diameter of the inhibition zone (DIZ)” value in the experiment with Staphylococcus aureus [5] came out at 11 mm.
On to `O=C(O)c1cccc(NC(=O)C2CCCCC2)c1O`, for which, in the experiment with Staphylococcus aureus [1], the zone of inhibition at 10 µg/disc came to 0 mm.
Turning to `CCC1(C(=O)Nc2cccc(C(=O)O)c2O)CCCCC1`, the zone of inhibition at 10 µg/disc with Staphylococcus aureus [1] worked out at 0 mm. For the same compound, in the experiment with Staphylococcus aureus [5], the “diameter of the inhibition zone (DIZ)” value is reported as 10 mm.
Consider `CC12CC[C@](C(=O)Nc3cccc(C(=O)O)c3O)(OC1=O)C2(C)C`, for which the zone of inhibition at 10 µg/disc in the experiment with Staphylococcus aureus [1] stood at 0 mm. Moreover, in the experiment on Staphylococcus aureus [5], the “diameter of the inhibition zone (DIZ)” value amounted to 14 mm.
On to `CCCC(=O)Nc1c(O)ccc(C(=O)O)c1O`, for which, in the experiment on Staphylococcus aureus [1], the zone of inhibition at 10 µg/disc amounted to 0 mm. Besides, the “diameter of the inhibition zone (DIZ)” value in the experiment with Staphylococcus aureus [5] was determined as 20 mm.
For the compound `O=C(O)c1cccc(NC(=O)C2CCCC2)c1O`, the zone of inhibition at 10 µg/disc in the experiment on Staphylococcus aureus [1] was found to be 0 mm.
Consider `CC12CC[C@@](C(=O)Nc3cccc(C(=O)O)c3O)(OC1=O)C2(C)C`, for which the zone of inhibition at 10 µg/disc with Staphylococcus aureus [1] worked out at 0 mm. The “diameter of the inhibition zone (DIZ)” value in the experiment on Staphylococcus aureus [5] is 21 mm.
As for `CC(=O)NC[C@H]1CN(c2ccc(N3CCOCC3)c(F)c2)C(=O)O1` [LINEZOLID], the zone of inhibition at 10 µg/disc in the experiment on Staphylococcus aureus [1] is 26 mm.
As to `O=C(O)c1ccc(O)c(NC(=O)C2CCCC2)c1O`, in the experiment on Staphylococcus aureus [1], the zone of inhibition at 10 µg/disc came to 0 mm. Besides, the “diameter of the inhibition zone (DIZ)” value in the experiment with Staphylococcus aureus [5] is 8 mm.
The like results for `CC12CC[C@](C(=O)Nc3c(O)ccc(C(=O)O)c3O)(OC1=O)C2(C)C` were, in that order, 18 mm and 38 mm.
For `CCCC(=O)Nc1cccc(C(=O)O)c1O`, the zone of inhibition at 10 µg/disc with Staphylococcus aureus [1] is 0 mm.
Still for that read-out and setting: in the case of `O=C(O)c1ccc(O)c(NC(=O)C2CCCCC2)c1O` it was 0 mm; in that of `CC(C)C(=O)Nc1c(O)ccc(C(=O)O)c1O`, 0 mm.
As to `CCC1(C(=O)Nc2c(O)ccc(C(=O)O)c2O)CCCCC1`, in the experiment with Staphylococcus aureus [1], the zone of inhibition at 10 µg/disc stood at 0 mm. In the experiment with Staphylococcus aureus [5], the “diameter of the inhibition zone (DIZ)” value was 10 mm.

What is called MIC is the least concentration at which growth counts as inhibited.
